Data published in ChEMBL document CHEMBL1201862, “PubChem BioAssay data set” (2004).
One block for each molecule: values may come before it. Active and inactive are the calls of the source.

What was measured:
[1] = biological target: T1, Insulin-degrading enzyme (Homo sapiens, UniProt P14735); experiment: recombinant IDE activation, cell-free – biochemical, fluorescence polarization, counter-screen for IDE activator project, dose response (AID 588681)
T1 sequence (P14735 whole entry): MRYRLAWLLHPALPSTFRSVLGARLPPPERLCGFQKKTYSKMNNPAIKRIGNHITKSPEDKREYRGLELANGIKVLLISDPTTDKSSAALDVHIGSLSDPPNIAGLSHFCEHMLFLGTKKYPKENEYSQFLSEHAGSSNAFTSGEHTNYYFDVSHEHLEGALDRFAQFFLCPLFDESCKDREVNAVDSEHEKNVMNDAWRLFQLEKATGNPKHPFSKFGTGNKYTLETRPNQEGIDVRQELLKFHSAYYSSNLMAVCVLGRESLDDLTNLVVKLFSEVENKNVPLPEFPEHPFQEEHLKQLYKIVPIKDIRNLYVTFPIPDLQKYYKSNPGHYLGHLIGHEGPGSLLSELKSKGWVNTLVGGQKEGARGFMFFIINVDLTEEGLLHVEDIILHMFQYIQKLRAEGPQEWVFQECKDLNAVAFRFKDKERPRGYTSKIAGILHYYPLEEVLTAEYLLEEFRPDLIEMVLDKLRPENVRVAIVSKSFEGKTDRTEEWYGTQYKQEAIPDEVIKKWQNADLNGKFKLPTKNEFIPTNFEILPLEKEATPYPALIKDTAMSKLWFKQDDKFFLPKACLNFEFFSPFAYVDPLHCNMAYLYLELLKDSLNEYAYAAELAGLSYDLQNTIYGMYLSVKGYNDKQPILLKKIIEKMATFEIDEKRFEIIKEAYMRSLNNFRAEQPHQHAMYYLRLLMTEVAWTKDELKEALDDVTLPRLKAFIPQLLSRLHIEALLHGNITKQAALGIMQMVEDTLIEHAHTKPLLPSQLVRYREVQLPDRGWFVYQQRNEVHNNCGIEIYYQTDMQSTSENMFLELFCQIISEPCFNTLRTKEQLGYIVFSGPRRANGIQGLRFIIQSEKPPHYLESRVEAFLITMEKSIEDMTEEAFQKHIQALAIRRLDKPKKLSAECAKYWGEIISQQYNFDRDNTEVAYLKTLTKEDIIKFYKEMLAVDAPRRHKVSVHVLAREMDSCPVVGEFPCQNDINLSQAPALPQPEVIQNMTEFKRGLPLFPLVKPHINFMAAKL

[2] = biological target: T1, Insulin-degrading enzyme; experiment: cellular IDE activation of Abeta substrate cleavage – fluorescence polarization, HEK cells, dose response (AID 588439); assay type: functional, cell-based
[3] = tested on: HEK293; experiment: optical interference in Abeta FP readout, dose response, artefact control for IDE activator project, biochemical, fluorescence polarization (AID 588442); assay type: functional, cell-based; conditions: Homo sapiens
[4] = biological target: T2, DNA repair protein RAD52 homolog (Homo sapiens, UniProt P43351); assay type: functional, biochemical
T2 sequence (P43351 whole entry): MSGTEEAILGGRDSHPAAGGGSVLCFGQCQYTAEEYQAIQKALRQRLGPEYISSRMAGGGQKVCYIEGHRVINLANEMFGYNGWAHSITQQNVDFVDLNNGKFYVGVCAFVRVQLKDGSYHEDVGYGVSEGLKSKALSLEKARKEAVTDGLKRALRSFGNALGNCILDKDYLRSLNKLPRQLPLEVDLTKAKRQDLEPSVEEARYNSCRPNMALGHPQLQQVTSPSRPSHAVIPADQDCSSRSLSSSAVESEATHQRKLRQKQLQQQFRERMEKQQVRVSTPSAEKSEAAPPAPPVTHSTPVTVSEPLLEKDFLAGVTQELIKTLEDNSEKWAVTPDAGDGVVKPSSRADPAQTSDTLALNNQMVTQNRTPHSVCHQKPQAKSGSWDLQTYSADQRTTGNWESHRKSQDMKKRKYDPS

[5] = tested on: HEK293; experiment: membrane integrity loss in HEK cells – cell-based, fluorescence, cytotoxicity control for IDE activator project, dose response (AID 588440); assay type: functional; conditions: Homo sapiens;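 also: cytotoxicity by LDH release measuring loss of membrane integrity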
[6] = tested on: INS1; experiment: suppression of NO production in INS-1E cells – cell-based, Griess absorbance, dry powder, set 2, dose response (AID 488868); assay type: functional; conditions: Rattus norvegicus
[7] = biological target: Disintegrin and metalloproteinase domain-containing protein 17 (Homo sapiens, UniProt P78536); experiment: inhibition of ADAM17 substrate cleavage – biochemical, quenched FRET substrate, counter-screen for ADAM10 exosite inhibitor project, dose response (AID 743253)
[8] = FACS-based assay to assess parasite growth inhibition 48 hr Measured in Cell-Based System Using Flow Cytometry - 2126-03_Inhibitor_Dose_DryPowder_Activity. [Related pubchem assays (depositor defined):AID488774]; assay type: functional; conditions: Homo sapiens
[9] = A cell-based HTS for delayed death inhibitors of the malarial parasite plastid Measured in Microorganism System Using Plate Reader - 2126-02_Inhibitor_Dose_DryPowder_Activity.; assay type: functional, organism-based
[10] = potency of ADAM10 substrate cleavage blockers – biochemical, QFRET, dose response (AID 743254);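 also: ADAM10 enzyme with the DM2 quenched FRET peptide as substrate; EDANS fluorescence gain as the protease cuts the substrate; inhibitor potency against ADAM10 proteolytic activity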
[11] = A cell-based HTS for delayed death inhibitors of the malarial parasite plastid Measured in Microorganism System Using Plate Reader - 2126-01_Inhibitor_Dose_DryPowder_Activity.; assay type: functional, organism-based
[12] = tested on: Erythrocyte; experiment: FACS-based assay to assess parasite growth inhibition 96 hr Measured in Cell-Based System Using Flow Cytometry - 2126-05_Inhibitor_Dose_DryPowder_Activity. [Related pubchem assays (depositor defined):AID488774]; assay type: functional; conditions: Homo sapiens
[13] = biological target: T3, Sentrin-specific protease 7 (Homo sapiens, UniProt Q9BQF6); experiment: inhibition of human SENP7 cleavage activity – biochemical, luminescence, set 2, SAR follow-up (AID 588600); assay type: functional
T3 sequence (Q9BQF6 whole entry): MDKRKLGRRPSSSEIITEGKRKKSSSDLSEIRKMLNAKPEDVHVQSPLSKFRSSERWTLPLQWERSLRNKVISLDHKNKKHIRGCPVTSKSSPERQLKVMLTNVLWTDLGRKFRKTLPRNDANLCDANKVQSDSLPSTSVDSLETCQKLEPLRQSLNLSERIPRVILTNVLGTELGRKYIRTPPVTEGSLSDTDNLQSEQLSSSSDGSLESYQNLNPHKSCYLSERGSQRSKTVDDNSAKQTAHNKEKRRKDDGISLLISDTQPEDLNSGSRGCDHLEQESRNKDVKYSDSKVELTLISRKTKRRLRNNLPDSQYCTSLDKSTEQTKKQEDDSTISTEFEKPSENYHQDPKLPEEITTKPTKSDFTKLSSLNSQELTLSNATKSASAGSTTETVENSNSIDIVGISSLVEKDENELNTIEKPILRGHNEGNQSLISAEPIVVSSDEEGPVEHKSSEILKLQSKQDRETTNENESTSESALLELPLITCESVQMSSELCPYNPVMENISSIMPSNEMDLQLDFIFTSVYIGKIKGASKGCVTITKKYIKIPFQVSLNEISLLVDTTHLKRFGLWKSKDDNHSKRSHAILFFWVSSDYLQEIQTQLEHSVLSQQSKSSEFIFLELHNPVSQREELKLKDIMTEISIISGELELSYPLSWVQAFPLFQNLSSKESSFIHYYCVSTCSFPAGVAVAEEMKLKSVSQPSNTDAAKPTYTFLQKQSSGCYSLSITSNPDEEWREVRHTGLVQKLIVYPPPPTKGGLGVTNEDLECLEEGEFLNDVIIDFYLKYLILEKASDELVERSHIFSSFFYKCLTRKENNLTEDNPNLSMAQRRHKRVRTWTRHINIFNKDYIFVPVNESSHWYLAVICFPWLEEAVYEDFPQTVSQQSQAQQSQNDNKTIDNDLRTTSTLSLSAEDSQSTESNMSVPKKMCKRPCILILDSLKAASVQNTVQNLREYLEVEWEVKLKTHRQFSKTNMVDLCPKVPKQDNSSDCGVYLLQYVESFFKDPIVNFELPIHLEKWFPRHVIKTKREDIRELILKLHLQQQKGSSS

[14] = biological target: T3, Sentrin-specific protease 7; experiment: inhibition of human SENP7 cleavage activity – biochemical, luminescence, SAR follow-up (AID 504497); assay type: functional
[15] = biological target: T4, Sentrin-specific protease 8 (Homo sapiens, UniProt Q96LD8); experiment: inhibition of human SENP8 cleavage activity – biochemical, luminescence, SAR follow-up (AID 504501); assay type: functional
T4 sequence (Q96LD8 whole entry): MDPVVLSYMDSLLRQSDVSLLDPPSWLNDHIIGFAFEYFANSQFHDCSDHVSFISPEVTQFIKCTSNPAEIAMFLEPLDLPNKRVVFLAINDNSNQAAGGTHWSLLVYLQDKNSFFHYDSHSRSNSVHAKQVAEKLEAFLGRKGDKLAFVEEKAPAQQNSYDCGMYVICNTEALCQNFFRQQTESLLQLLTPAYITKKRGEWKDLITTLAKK

[16] = biological target: T5, Caspase-3 (Homo sapiens, UniProt P42574); experiment: inhibition of recombinant caspase-3 activity – biochemical, luminescence, set 2, selectivity assay for SENP protease inhibitor project, SAR follow-up (AID 588599); assay type: functional
T5 sequence (P42574 whole entry): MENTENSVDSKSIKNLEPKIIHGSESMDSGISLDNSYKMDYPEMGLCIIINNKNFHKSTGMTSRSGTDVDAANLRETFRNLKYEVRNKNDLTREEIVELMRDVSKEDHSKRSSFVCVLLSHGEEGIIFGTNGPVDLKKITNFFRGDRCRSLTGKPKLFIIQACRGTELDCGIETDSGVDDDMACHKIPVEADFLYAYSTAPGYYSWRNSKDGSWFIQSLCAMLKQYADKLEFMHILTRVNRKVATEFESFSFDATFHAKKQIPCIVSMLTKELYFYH

[17] = biological target: T5, Caspase-3; experiment: SAR Analysis of small molecule inhibitors of Sentrin-specific proteases (SENPs) using a Caspase-3 Selectivity assay. [Related pubchem assays (depositor defined):AID2540, AID2599, AID434973, AID489001]; assay type: functional
[18] = biological target: T4, Sentrin-specific protease 8; experiment: inhibition of sentrin protease 8 – biochemical, luminescence, set 2, SAR follow-up (AID 588601); assay type: functional
[19] = biological target: T6, Sentrin-specific protease 6 (Homo sapiens, UniProt Q9GZR1); experiment: SAR Analysis of small molecule inhibitors of Sentrin-specific protease 6 (SENP6) using a Luminescent assay. [Related pubchem assays (depositor defined):AID2582, AID2599]; assay type: functional
T6 sequence (Q9GZR1 whole entry): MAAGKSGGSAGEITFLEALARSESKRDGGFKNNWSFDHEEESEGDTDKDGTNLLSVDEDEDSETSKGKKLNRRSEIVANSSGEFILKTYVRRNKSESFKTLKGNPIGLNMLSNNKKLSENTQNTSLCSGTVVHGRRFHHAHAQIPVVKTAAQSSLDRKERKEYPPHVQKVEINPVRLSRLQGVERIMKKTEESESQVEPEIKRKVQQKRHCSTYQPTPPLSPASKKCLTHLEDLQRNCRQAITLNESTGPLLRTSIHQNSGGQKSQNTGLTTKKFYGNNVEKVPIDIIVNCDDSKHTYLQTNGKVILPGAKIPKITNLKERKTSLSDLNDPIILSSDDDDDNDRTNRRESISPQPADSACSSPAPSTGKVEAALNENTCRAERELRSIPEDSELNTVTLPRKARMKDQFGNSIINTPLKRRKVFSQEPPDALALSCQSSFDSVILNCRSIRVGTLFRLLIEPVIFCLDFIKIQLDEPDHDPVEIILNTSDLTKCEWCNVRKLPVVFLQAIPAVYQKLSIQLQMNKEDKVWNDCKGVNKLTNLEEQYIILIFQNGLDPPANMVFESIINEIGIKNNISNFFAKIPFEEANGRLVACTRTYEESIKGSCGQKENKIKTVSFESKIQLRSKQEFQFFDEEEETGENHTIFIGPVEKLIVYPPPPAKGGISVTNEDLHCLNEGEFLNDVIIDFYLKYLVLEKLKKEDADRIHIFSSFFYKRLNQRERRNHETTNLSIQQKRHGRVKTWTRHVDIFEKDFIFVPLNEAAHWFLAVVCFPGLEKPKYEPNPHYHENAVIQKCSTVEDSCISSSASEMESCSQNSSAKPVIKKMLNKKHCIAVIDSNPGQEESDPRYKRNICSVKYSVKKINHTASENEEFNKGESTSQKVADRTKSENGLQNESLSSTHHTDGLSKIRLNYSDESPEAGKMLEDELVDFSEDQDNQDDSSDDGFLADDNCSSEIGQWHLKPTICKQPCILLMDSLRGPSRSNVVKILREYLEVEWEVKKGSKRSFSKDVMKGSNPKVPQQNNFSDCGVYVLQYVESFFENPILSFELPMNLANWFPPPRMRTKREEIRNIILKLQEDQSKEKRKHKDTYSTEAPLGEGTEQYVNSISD

[20] = biological target: T6, Sentrin-specific protease 6; experiment: inhibition of human SENP6 catalytic domain – biochemical, luminescence, set 2, SAR follow-up (AID 588598); assay type: functional

Sequence of Disintegrin and metalloproteinase domain-containing protein 17 (P78536 whole entry, the tested form may be a part): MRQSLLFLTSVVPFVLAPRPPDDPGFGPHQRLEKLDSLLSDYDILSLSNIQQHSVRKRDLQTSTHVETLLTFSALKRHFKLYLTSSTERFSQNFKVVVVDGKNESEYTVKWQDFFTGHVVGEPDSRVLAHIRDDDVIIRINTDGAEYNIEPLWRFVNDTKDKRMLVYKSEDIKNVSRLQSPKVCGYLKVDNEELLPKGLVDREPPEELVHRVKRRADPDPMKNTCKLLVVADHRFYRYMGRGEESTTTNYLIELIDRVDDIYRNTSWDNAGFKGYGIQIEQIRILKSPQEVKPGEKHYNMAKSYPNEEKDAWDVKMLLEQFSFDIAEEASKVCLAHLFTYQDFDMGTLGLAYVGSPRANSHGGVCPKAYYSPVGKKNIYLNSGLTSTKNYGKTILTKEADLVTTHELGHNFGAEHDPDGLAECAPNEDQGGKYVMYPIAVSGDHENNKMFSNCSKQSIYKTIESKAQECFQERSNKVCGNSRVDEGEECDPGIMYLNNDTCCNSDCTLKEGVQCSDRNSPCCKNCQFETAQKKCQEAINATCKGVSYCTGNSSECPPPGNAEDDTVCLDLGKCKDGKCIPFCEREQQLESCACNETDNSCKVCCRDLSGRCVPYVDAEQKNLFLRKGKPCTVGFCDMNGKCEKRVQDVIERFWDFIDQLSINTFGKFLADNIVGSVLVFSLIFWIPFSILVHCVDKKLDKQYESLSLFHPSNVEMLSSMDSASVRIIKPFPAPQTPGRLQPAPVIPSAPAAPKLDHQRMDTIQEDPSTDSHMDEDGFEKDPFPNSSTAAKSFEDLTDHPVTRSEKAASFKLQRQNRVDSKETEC

Compound: O=c1c2c(-c3ccccc3)csc2nc2c3ccccc3c(NCCN3CCOCC3)nn12
- EC50 [1]: 25200 nM (inactive)
- EC50 [2]: > 54700 nM (inactive)
- EC50 [3]: > 55900 nM (inactive)
- AC50 [4]: 1580 nM (active)
- IC50 [5]: 10600 nM (inactive)

Compound: COc1ccc(S(=O)(=O)N(C)C[C@@H]2Oc3ccc(NC(=O)Nc4cccc5ccccc45)cc3C(=O)N([C@@H](C)CO)C[C@H]2C)cc1
- AC50 [6]: 43800 nM (active)

Compound: C[C@@H]1CN([C@@H](C)COC(=O)C(C)(C)C)C(=O)c2cc(NC(=O)Nc3ccccc3)ccc2O[C@@H](C)CCCCO[C@H]1CN(C)S(=O)(=O)c1ccc(F)cc1
- IC50 [7]: > 69500 nM (inactive)
- AC50 [8]: 4.25 nM (active)
- AC50 [9]: 8.77 nM (active)
- IC50 [10]: > 69500 nM (inactive)
- AC50 [11]: 5.39 nM (active)
- AC50 [12]: 5 nM (active)

- IC50 [13]: 1210 nM (active)
- IC50 [14]: 890 nM (active)
- IC50 [16]: 954 nM (active)
- IC50 [17]: 540 nM (active)
- IC50 [19]: 750 nM (active)
- IC50 [20]: 1190 nM (active)
Compound: O=C(Nc1nc2ccccc2s1)c1sccc1Cl
- IC50 [15]: 710 nM (active)
- IC50 [18]: 1220 nM (active)
